In one assay the target is T1, GORK (Arabidopsis thaliana, UniProt Q94A76).
T1 sequence (Q94A76 1-820): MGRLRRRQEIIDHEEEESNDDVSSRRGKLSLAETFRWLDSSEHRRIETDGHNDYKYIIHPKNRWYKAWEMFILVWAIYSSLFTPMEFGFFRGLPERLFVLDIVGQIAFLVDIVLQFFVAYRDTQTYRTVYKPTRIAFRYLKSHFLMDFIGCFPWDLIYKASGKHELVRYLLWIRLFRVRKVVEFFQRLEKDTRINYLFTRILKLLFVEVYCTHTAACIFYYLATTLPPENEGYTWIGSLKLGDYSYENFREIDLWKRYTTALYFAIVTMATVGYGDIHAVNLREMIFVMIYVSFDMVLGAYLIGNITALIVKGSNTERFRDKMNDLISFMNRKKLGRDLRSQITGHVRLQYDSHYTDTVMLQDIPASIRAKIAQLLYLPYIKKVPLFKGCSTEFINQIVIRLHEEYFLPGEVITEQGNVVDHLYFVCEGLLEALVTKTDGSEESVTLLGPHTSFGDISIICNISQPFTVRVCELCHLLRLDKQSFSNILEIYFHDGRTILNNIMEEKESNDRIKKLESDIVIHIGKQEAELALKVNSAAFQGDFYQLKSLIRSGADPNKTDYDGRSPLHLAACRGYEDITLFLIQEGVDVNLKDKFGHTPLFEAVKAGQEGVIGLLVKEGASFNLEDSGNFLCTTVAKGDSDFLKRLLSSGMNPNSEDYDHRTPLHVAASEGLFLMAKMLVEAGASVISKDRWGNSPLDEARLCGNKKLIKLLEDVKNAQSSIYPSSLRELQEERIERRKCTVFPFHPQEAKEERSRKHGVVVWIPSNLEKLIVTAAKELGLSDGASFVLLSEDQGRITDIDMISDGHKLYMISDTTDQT
The assay can be described thus: two-electrode voltage clamp in Xenopus oocytes expressing the channel, […]. It is filed as cell-based.

The target of the next assay is KAT1 (Arabidopsis thaliana, UniProt Q39128). The assay is described as above. It is filed as cell-based.
For assay [1], the target named is T2, KAT2 (Arabidopsis thaliana, UniProt Q38849). The assay is described as above. It is filed as cell-based.
Assay [2] addresses T2, KAT2. Briefly: cell-based. To be noted: read-out: % inhibition at 0.5 mM.

Data on three molecules can be found in publication PMC9313475, “Green Tea Catechins, (−)‐Catechin Gallate, and (−)‐Gallocatechin Gallate are Potent Inhibitors of ABA‐Induced Stomatal Closure” (Advanced Science, 2022).

T2 sequence (Q38849 whole entry): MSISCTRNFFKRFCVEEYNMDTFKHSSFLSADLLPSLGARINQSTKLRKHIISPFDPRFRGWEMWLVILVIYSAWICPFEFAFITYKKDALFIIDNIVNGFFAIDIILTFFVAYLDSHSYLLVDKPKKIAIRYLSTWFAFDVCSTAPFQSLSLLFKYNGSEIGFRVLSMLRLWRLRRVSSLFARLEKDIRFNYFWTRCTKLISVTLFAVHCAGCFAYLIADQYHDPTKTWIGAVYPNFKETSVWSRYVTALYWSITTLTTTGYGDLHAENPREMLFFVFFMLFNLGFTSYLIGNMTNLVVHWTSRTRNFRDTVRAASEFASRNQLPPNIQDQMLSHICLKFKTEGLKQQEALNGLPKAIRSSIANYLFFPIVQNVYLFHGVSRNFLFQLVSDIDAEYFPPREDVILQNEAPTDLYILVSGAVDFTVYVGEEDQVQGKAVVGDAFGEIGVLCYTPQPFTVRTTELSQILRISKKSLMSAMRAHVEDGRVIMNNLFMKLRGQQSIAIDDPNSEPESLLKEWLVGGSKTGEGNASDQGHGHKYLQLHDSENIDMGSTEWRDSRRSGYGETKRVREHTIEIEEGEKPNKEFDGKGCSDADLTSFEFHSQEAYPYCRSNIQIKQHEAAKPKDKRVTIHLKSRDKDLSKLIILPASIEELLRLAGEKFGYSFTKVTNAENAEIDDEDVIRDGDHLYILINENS
Sequence of KAT1 (Q39128 whole entry): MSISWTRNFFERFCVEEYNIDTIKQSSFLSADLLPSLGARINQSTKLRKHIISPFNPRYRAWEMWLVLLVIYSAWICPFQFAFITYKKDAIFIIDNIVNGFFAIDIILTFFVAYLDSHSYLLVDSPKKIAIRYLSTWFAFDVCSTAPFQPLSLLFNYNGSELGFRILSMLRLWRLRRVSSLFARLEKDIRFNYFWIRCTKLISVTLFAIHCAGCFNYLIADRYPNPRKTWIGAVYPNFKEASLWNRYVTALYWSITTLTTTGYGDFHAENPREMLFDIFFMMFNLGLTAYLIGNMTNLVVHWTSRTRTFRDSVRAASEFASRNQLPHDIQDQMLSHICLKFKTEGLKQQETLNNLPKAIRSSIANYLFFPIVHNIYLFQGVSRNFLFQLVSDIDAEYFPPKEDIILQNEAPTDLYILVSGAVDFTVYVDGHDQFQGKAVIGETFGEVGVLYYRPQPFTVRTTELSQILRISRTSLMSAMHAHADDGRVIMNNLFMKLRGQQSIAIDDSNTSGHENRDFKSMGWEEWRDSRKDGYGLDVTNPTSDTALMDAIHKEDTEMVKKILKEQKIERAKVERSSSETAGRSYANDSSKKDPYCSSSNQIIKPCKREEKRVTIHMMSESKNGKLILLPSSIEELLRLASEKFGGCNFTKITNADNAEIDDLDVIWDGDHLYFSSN

On to `O=C(O[C@@H]1Cc2c(O)cc(O)cc2O[C@H]1c1ccc(O)c(O)c1)c1cc(O)c(O)c(O)c1` [CG, (−)-catechin gallate], for which the “two-electrode voltage clamp in Xenopus oocytes expressing the channel, 500 μM” value is “GORK was strongly inhibited by CG and GCG, whereas AKT1 and AKT2 were less sensitive to CG and GCG” on GORK; “Both CG and GCG inhibited KAT1 and KAT2 (Figure 3A,B)” on KAT1; “Both CG and GCG inhibited KAT1 and KAT2 (Figure 3A,B)” on KAT2 [1].
For the molecule `O=C(O[C@@H]1Cc2c(O)cc(O)cc2O[C@H]1c1cc(O)c(O)c(O)c1)c1cc(O)c(O)c(O)c1` [GCG, (−)-gallocatechin gallate], the “two-electrode voltage clamp in Xenopus oocytes expressing the channel, 500 μM” value was “GORK was strongly inhibited by CG and GCG, whereas AKT1 and AKT2 were less sensitive to CG and GCG” on GORK; “Both CG and GCG inhibited KAT1 and KAT2 (Figure 3A,B)” on KAT1; “Both CG and GCG inhibited KAT1 and KAT2 (Figure 3A,B)” on KAT2 [1].
Turning to `CC[N+](CC)(CC)CC` [TEA, tetraethylammonium], the inhibition at 500 µM on KAT2 [2] was 14%.
